For this experiment, the system named is HIV-1 (RF). In words: HIV RNA assay: microplate based compound evaluation in HIV-1 infected MT-2 cells. The settings on record: Human immunodeficiency virus 1, MT2, 72 h; HIV-1 (RF) infected MT-2 cells, 3 days culture; value used to standardize the virus inoculum; read-out: IC90 (concentration of compound required to reduce the HIV RNA level by 90%). In kind it is cell-based. As to the method: DNA Plasmids and in vitro RNA Transcripts:
Plasmid pDAB 72 containing both gag and pol sequences of BH10 (bp 113-1816) cloned into PTZ 19R was prepared according to Erickson-Viitanen et al. AIDS Research and Human Retroviruses 1989, 5, 577. The plasmid was linearized with Bam HI prior to the generation of in vitro RNA transcripts using the Riboprobe Gemini system II kit (Promega) with T7 RNA polymerase. Synthesized RNA was purified by treatment with RNase free DNAse (Promega), phenol-chloroform extraction, and ethanol precipitation. RNA transcripts were dissolved in water, and stored at −70° C. The concentration of RNA was determined from the A260.
Biotinylated capture probes were purified by HPLC after synthesis on an Applied Biosystems (Foster City, Calif.) DNA synthesizer by addition of biotin to the 5′ terminal end of the oligonucleotide, using the biotin-phosphoramidite reagent of Cocuzza, Tet. Lett. 1989, 30, 6287. […]
MT-2 and MT-4 cells were maintained in RPMI 1640 supplemented with 5% fetal calf serum (FCS) for MT-2 cells or 10% FCS for MT-4 cells, 2 mM L-glutamine and 50 μg/mL gentamycin, all from Gibco. […] Infectious titers of HIV-1(RF) stocks were 1-3×10^7 PFU (plaque forming units)/mL as measured by plaque assay on MT-2 cells (see below). […]

≈ marks a conversion by molar mass, not a printed value.

As for `Nc1ccn([C@H]2CC[C@@H](CO)O2)c(=O)n1` [ddC, 2′,3′-dideoxycytidine], the IC90 stood at 0.2 µg/mL (≈ 0.947 µM).

For the origin of these results see patent US20040063734A1, “4,4-Disubstituted-3,4-dihydro-2 (1H)-quinazoliniones useful as HIV reverse transcriptase inhibitors” (priority 2002, published 2004).
